Patent publication US20190078161A1, “METHOD FOR IDENTIFYING CLINICAL TRIAL RESPONDERS FROM A PLACEBO GROUP IN MAJOR DEPRESSION” (Tekada Pharmaceutical Company Limited, priority 2016, published 2019)

Key:
Assay type in all cases: in vivo, human
adult patients with MDD [1] = test: TAK-315 Trial: change from baseline in MADRS total score, 8 weeks of treatment
Protocol: (§1) Multicenter, randomized, double-blind, parallel-group, placebo-controlled, drug-referenced, fixed-dose studies were conducted to evaluate the efficacy and safety of vortioxetine in the acute treatment of adult patients with MDD. A total of 595 individuals meeting the diagnostic criteria from the DSM-IV-TR for recurrent MDD were included in the studies, TAK-315, -316 and -317. The current major depressive disorder for each individual was confirmed by the Structured Clinical Interview for DSM Disorders (SCID). […] Individuals were treated with 10, 15 or 20 mg vortioxetine, or a different drug, or administered a placebo daily for 8 weeks.
(§2) Subjects were seen weekly during the first 2 weeks of treatment and then every 2 weeks up to the end of the 8-week treatment period. The primary outcome measure was change from baseline in MADRS total score after 8 Weeks of treatment. MADRS is a depression rating scale consisting of 10 items, each rated 0 (no symptom) to 6 (severe symptom). The 10 items represent the core symptoms of depressive illness. The rating is based on a clinical interview with the patient, moving from broadly phrased questions about symptoms to more detailed ones, which allow a precise rating of severity, covering the most recent 7 days. Total score is from 0 to 60, with a higher the score being the more severe. […]

adult patients with MDD [2] = test: TAK-316 Trial: change from baseline in MADRS total score, 8 weeks of treatment
Protocol: as §1, §2

adult patients with MDD [3] = test: Combined TAK-315 and TAK-316 Trials: predicted MADRS response rate by 24-SNP placebo subgroup
Protocol: as §1
Secondary outcome measures included the proportion of responders at week 8 (responders defined as a 50% decrease in MADRS total score from baseline); a change from baseline in MADRS total score at week 8; and a change in clinical status using CGI-I score at week 8. The CGI-I scale is a 7-point scale rated from 1 (very much improved) to 7 (very much worse). The investigator rated the patient's overall improvement relative to baseline, whether or not, in the opinion of the investigator, this was entirely due to the treatment.
A main effect model was utilized to identify genes or single variants prognostic of response using the placebo samples.
In the placebo arm, the mean response rate in the subgroup [N=125; BM(+)] was 47.33% (CL: 0.38-0.57) and not in the subgroup [N=94; BM(−)] was 15.52% (CL: 0.1-0.25). The subgroup size in the placebo arm was 57.1% [BM(+)] and 42.9% [BM(−)]. […] The placebo subgroup size in the Vortioxetine 20 mg treat arm was 45.9(%) [BM(+), N=89] and 54.1% [BM(−), N=105].
FIG. 8 provides a comparison of the 24 SNP placebo model in the three trials' (TAK-315, 316 & 317) placebo arms and the 20 mg vortioxetine dose in TAK-315 and -316. […] In the placebo arm the mean response rate in the subgroup [N=187; BM(+)] was 46.63% (CL: 0.39-0.55) and not in the subgroup [N=148; BM(−)] was 17.02% (CL: 0.12-0.24). The subgroup size in the placebo arm was 55.8% [BM(+)] and 44.2% [BM(−)]. […] The subgroup size in the Vortioxetine 20 mg treat arm was 45.9% [BM(+), N=89] and 54.1% [BM(−), N=105].

[4] = 20 mg vortioxetine daily, 8 weeks

Cc1ccc(Sc2ccccc2N2CCNCC2)c(C)c1 [vortioxetine]
LS mean (SE) change from baseline in MADRS score (adult patients with MDD [1]; [4]): −15.56 (1.67) | LS mean difference in MADRS change, active vs. placebo BM(+) (adult patients with MDD [1]; 20 mg vortioxetine vs 24-SNP Placebo BM(+) subgroup, SE 2.11): 0.12 | LS mean (SE) change from baseline in MADRS score (adult patients with MDD [2]; [4]): −13.87 (1.63) | LS mean difference in MADRS change, active vs. placebo BM(+) (adult patients with MDD [2]; 20 mg vortioxetine vs 24-SNP Placebo BM(+) subgroup, SE 2.14): 0.12 | mean response rate (MADRS, LSmean predicted response rate) (adult patients with MDD [3]; Vortioxetine 20 mg arm (TAK-315 and -316), placebo BM(+) subgroup N=89, analysis with TAK-315/316/317 placebo arms (FIG. 8)): 36.00% | mean response rate (MADRS, LSmean predicted response rate) (adult patients with MDD [3]; Vortioxetine 20 mg arm (TAK-315 and -316), placebo BM(−) subgroup N=105, analysis with TAK-315/316/317 placebo arms (FIG. 8)): 44.0% | mean response rate (MADRS, LSmean predicted response rate) (adult patients with MDD [3]; Vortioxetine 20 mg arm, placebo BM(+) subgroup N=89, TAK-315/316 analysis (FIG. 6)): 35.96% | mean response rate (MADRS, LSmean predicted response rate) (adult patients with MDD [3]; Vortioxetine 20 mg arm, placebo BM(−) subgroup N=105, TAK-315/316 analysis (FIG. 6)): 43.0%
